Several values for one entry are separate records, joined by “and”; a condition that tells them apart may be missing. Equal entries are not always repeated. Where two headings read alike, the source gives them in different places.
How the values were obtained:
PDHc-h = PDHc-h (Homo sapiens, UniProt P08559+P11177); assay: Overall PDHc-h activity by formation of NADH at 340 nm; type: biochemical
OGDHc-ec = OGDHc-ec (Escherichia coli, UniProt P0AFG3); assay: Overall OGDHc-ec activity by formation of NADH; type: biochemical
PDHc-ec [1] = biological target: T1, PDHc-ec (Escherichia coli, UniProt P0AFG8); details: cofactor 0.2 mM in assay, no ThDP present for MeOThDP
PDHc-ec [2] = biological target: T1, PDHc-ec
E1p-h [3] = biological target: T2, E1p-h (Homo sapiens, UniProt P08559+P11177); details: MeOThDP bound on E1p-h; CD309 vs pH
T2 sequence (P08559 30-390): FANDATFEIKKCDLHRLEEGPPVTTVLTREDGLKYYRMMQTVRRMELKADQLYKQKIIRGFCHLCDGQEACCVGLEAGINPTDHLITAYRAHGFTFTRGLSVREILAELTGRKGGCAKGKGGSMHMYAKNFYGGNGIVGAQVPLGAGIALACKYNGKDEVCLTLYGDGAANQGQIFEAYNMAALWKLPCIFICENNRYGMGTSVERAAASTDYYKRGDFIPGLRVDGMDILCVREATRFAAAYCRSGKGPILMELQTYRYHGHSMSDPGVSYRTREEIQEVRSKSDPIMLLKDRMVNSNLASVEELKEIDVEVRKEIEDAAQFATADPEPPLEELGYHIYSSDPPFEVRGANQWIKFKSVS
T2 sequence (P11177 31-359): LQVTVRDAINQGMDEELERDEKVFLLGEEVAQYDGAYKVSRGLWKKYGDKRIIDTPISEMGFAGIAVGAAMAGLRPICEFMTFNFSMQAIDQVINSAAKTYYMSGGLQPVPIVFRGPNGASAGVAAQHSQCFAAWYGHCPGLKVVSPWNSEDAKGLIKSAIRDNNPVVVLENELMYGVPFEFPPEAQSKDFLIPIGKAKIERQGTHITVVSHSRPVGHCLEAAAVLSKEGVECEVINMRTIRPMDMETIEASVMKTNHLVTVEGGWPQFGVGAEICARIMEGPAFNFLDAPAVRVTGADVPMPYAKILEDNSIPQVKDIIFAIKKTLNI

E1p-ec [4] = biological target: T3, E1p-ec (Escherichia coli, UniProt P0AFG8)
E1o-h = biological target: T4, E1o-h (Homo sapiens, UniProt Q02218); assay: E1o-h specific activity; type: biochemical
T4 sequence (Q02218 41-1023): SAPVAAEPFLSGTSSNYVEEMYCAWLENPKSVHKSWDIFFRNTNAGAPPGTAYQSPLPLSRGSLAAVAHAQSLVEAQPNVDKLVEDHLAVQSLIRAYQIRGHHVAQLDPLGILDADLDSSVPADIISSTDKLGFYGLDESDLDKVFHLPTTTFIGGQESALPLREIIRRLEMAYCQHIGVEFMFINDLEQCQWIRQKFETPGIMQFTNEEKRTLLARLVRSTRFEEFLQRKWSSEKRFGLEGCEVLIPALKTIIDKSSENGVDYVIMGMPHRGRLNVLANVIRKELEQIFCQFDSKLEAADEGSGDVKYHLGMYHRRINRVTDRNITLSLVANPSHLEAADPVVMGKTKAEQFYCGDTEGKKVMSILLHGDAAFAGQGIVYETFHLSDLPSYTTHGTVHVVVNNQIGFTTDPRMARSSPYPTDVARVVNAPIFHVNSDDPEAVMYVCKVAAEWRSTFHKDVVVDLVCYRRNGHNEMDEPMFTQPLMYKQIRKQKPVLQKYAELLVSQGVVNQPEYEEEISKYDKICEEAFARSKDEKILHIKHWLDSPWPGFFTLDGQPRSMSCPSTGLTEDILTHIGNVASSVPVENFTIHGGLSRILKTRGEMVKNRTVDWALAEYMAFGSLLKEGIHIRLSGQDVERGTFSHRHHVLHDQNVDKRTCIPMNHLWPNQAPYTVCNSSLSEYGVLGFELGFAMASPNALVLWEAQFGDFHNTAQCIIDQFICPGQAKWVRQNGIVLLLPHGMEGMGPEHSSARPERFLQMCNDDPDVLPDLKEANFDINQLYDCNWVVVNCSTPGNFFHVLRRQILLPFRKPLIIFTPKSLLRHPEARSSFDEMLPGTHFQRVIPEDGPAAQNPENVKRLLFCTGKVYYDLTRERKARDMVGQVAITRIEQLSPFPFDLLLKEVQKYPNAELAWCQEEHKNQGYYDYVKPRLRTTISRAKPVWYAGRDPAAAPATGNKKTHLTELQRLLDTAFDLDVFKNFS

E1o-ec = E1o-ec (Escherichia coli, UniProt P0AFG3); assay: E1o-ec specific activity; type: biochemical
PDHc-ec [5] = biological target: T1, PDHc-ec; details: ThDP binding to PDHc-ec; cited from earlier work
E1p-h [6] = biological target: T2, E1p-h; details: ThDP on E1p-h; cited from earlier work
E1p-ec [7] = biological target: T3, E1p-ec; details: E1p-ec complexed with ThDP; cited from earlier work
E1p-ec [8] = biological target: T3, E1p-ec; assay: biochemical
DXPS = DXPS (Escherichia coli, UniProt P77488); assay: biochemical
[9] = MeOThDP, PDHc-ec reconstituted from apo-E1p-ec, from lag phase

Structure (SMILES): COc1ncc(C[n+]2csc(CCOP(=O)(O)OP(=O)(O)O)c2C)c(N)n1 [MeOThDP, 2′-methoxythiamin diphosphate]
- pH of maximal kcat in the overall PDHc-h activity (PDHc-h; E1p-h complexed with MeOThDP): 7.25
- overall OGDHc activity, percent of that with ThDP (OGDHc-ec; listed as MeOThP): 42% and 69%
- overall PDHc-ec activity, percent of that with ThDP (PDHc-ec [1]): 8.6% and 11% and 5.9%
- K1 binding constant (PDHc-ec [2]; MeOThDP, PDHc-ec reconstituted from apo-E1p-ec, E2p-ec, E3-ec, from lag phase): 300000 M⁻¹
- k2 forward rate constant of binding (PDHc-ec [2]; [9]): 0.0087 s⁻¹
- k3 forward rate constant for second cofactor binding (PDHc-ec [2]; [9]): 49 M⁻¹ s⁻¹
- k-2 dissociation rate constant (PDHc-ec [2]; [9]): 0.0033 s⁻¹
- k-3 reverse rate constant for dissociation of second cofactor (PDHc-ec [2]; [9]): 0.0069 s⁻¹
- k3 times lower than that for ThDP (PDHc-ec [2]; binding of second MeOThDP vs ThDP): ~ 14 times
- Kd (PDHc-ec [2]; read-out: Kd,MeOThDP calculated as 1/K1,MeOThDP, from Table 2): 3.45 ± 0.74 µM
- pKa for the ([AP] + [IP])/[APH^+] equilibrium (E1p-h [3]): 8.02 ± 0.03
- rate constant of reductive acetylation of LDh-ec (E1p-ec [4]; E1p-ec complexed with MeOThDP (0.20 mM), 2 mM pyruvate): 4.4 s⁻¹
- rate constant of reductive acetylation, times slower than with ThDP (E1p-ec [4]; E1p-ec with MeOThDP vs ThDP): at least 10 times

Structure (SMILES): Cc1ncc(C[n+]2csc(CCOP(=O)([O-])OP(=O)(O)O)c2C)c(N)n1 [ThDP, thiamin diphosphate]
- overall PDHc-h activity, percent of that with ThDP (PDHc-h; cofactor 0.2 or 0.5 mM): 100%
- overall OGDHc activity, percent of that with ThDP (OGDHc-ec): 100%
- E1o specific activity, percent of that with ThDP (E1o-h; E1o-h): 100%
- E1o specific activity (E1o-h; E1o-h alone): 0.51 ± 0.02 µmol min^−1 (mg of E1o)^−1 and 0.44 ± 0.08 µmol min^−1 (mg of E1o)^−1
- E1o specific activity, percent of that with ThDP (E1o-ec; E1o-ec): 100%
- E1o specific activity (E1o-ec; E1o-ec alone): 0.54 ± 0.03 µmol min^−1 (mg of E1o)^−1 and 0.54 ± 0.31 µmol min^−1 (mg of E1o)^−1
- overall PDHc-ec activity, percent of that with ThDP (PDHc-ec [1]): 100%
- K1 binding constant (PDHc-ec [5]): 1.2e+06 M⁻¹
- k2 forward rate constant of binding (PDHc-ec [5]): 0.0112 s⁻¹
- k3 forward rate constant for second cofactor binding (PDHc-ec [5]): 710 M⁻¹ s⁻¹
- k-2 dissociation rate constant (PDHc-ec [5]): 0.0038 s⁻¹
- k-3 reverse rate constant for dissociation of second cofactor (PDHc-ec [5]): 0.0076 s⁻¹
- pKa for the ([AP] + [IP])/[APH^+] equilibrium (E1p-h [6]): 7.07 ± 0.1
- rate constant of reductive acetylation of LDh-ec (E1p-ec [7]): 52 s⁻¹
- Kd (E1p-ec [8]): 7 ± 0.9 µM
- Kd (DXPS): 3.5 ± 0.1 µM
